Experimental findings from PMC8304783, “Antiadhesive Properties of Imidazolium Ionic Liquids Based on (−)-Menthol Against Candida spp” (International Journal of Molecular Sciences, 2021) are described below.

Assay type in all cases: cell-based
One series relates to C. albicans SC5314. Kind of series: Minimal inhibitory and fungicidal concentrations (broth microdilution, CLSI M27-A3 modified). The note with it: Candida albicans, 28 °C. Here is the method:
(§1) Experiments were performed according to the Clinical and Laboratory Standards Institute (2008), 3rd ed. M27-A3 [51], with modifications described previously. Briefly, MICs were determined by serially diluting ILs in YPD medium in sterile 96-well plates (Sarstedt) and inoculating with fungal suspensions (final OD600 per well = 0.01). After incubation (48 h; 28 °C), the OD600 was measured (ASYS UVM 340 Biogenet). […] Each well was then replated on YPD agar and incubated for 5 days at 28 °C.

The test system of another series is C. glabrata ATCC90030. Described as above. Conditions: Nakaseomyces glabratus, 28 °C. Here is the method: as §1
Another series has as its system C. krusei ATCC6258. The series is described as above. Conditions: Pichia kudriavzevii, 28 °C. Here is the method:
as §1

Another series deals with C. parapsilosis CBS10947. The description is as above. The note with it: Lodderomyces parapsilosis, 28 °C. Here is the method: as §1
In series [1] the test system is C. albicans. As to the kind of experiment: Detachment of adherent cells from polystyrene (crystal violet). The note with it: C. albicans on polystyrene, 2 h treatment; highest concentration (4 × MIC). Here is the method:
(§2) Thus, for the evaluation of ILs on fungal adhesion, higher concentrations were used, corresponding to 1, 2 and 4 times the MIC90 values (Figure 1).
(§3) Figure 1 Detachment of adherent Candida spp. cells after 2 h incubation on polystyrene surfaces by ionic liquids (ILs) (A) or amphotericin B (AMB) (B) (means ± SD; n = 3). Results are presented as percentage of adherent cells relative to untreated controls (100% adhesion). Statistical analysis of detachment at each concentration was performed towards corresponding control experiments (fungi untreated by ILs or AMB = 100% adhesion) (*, p < 0.05 and **, p < 0.01).
(§4) Post-adherence treatment with ILs was performed in a similar manner to that described previously by our team. Candida spp. suspensions were prepared by centrifuging YPD-grown cultures and resuspending fungal mass in PBS to an OD600 = 0.6. Sterile 96-well plates were inoculated with the prepared suspensions and incubated for 2 h at 37 °C to induce fungal adhesion. Afterwards, adherent cells were washed with PBS to remove planktonic cells and treated with ILs (concentrations equivalent to 1, 2 or 4 × MIC90 for each fungi) for 2 h at 37 °C. Then, each well was washed with PBS and adherent cells were fixed with 0.1% CV solution for 5 min, and washed with PBS. Cells were then treated with a solution of isopropanol 0.04 N HCL with 0.1% SDS to permeabilize adherent cells and release the CV dye. The absorbance of CV was measured at 590 nm (ASYS UVM 340 Biogenet). The percentage of cells that were removed was determined in comparison to adherent cells treated with PBS only (designated 100% adhesion).

Series [2] has as its system C. glabrata. The description is as above. Conditions: C. glabrata on polystyrene, 2 h treatment; highest concentration (4 × MIC). Here is the method: as §2, §3, §4
Series [3] has as its system C. krusei. The series is described as above. The note with it: C. krusei on polystyrene, 2 h treatment; highest concentration (4 × MIC). Here is the method: as §2, §3, §4
Series [4] relates to C. parapsilosis. The description is as above. Conditions: C. parapsilosis on polystyrene, 2 h treatment; highest concentration (4 × MIC). Here is the method: as §2, §3, §4
Series [5] relates to C. albicans. Kind of series: Plasma membrane permeabilization (propidium iodide staining). Conditions: 2 h treatment at MIC90, PI staining, mean ± SD, n = 3. Here is the method: (§5) We tested ILs for their activity in permeabilizing fungi plasma membranes (PMs), by treating cells with concentrations of ILs corresponding to their MIC90 values (Table 2).
(§6) The assessment of PM permeability was performed as described previously, with modifications. Briefly, 3 mL of Candida spp. cell suspensions (OD600 = 0.1) in PBS were mixed with ILs (concentrations equivalent to MIC90 against each fungi). Samples were incubated for 2 h at 37 °C, washed with PBS and stained with PI to the final dye concentration of 6 × 10^−6 M for 5 min. Then, cell suspensions were washed with PBS and observed under the Zeiss Axio Imager A2 microscope equipped with the Zeiss Axiocam 503 mono microscope camera and Zeiss HBO100 mercury lamp. The percentage of permeabilized cells was evaluated by counting PI positive cells out of one hundred in three independent repetitions for each experiment.

The subject of series [6] is C. glabrata. Described as above. The note with it: 2 h treatment at MIC90, PI staining, mean ± SD, n = 3. Here is the method:
as §5, §6

The test system of series [7] is C. krusei. Described as above. The note with it: 2 h treatment at MIC90, PI staining, mean ± SD, n = 3. Here is the method:
as §5, §6

The subject of series [8] is C. parapsilosis. The series is described as above. The note with it: 2 h treatment at MIC90, PI staining, mean ± SD, n = 3. Here is the method:
as §5, §6

The test system of another series is sheep erythroid PMs. Kind of series: Hemolysis assay. Conditions: AMB conc. 0.25 µM; sheep RBCs; 1% SDS = 100% hemolysis. Here is the method: To examine any possible toxic effect towards animal cells, ILs were tested for their lytic activity on sheep erythroid PMs, in comparison to AMB (Table 3). For this part of study, higher concentrations were selected, corresponding to MFC values of tested fungi (12.5; 25 and 50 µM in case of ILs, and 0.25; 0.5 and 1 µM in case of AMB, Table 1). The compounds were ranked in terms of hemolytic activity as follows: 1a > 1b > 2a. IL with alkoxymethyl chain (2a) produced <5% hemolysis, regardless of the concentration used. Compounds with alkyl substituents (1a and 1b) were more hemolytic in 12.5 than in 25 µM concentrations, and in the highest concentration (50 µM), both compounds produced >10% and >5% hemolysis, respectively.
ILs were tested for hemolytic activity, as described previously. Briefly, 5 mL of fresh sheep blood was centrifuged (2000 rpm, 15 min), washed with PBS and resuspended in PBS to achieve hematocrit level of 50%. Red blood cells (RBCs) were treated with ILs (concentrations = 12.5, 25 and 50 µM) for 2 h at 37 °C. Afterwards, RBCs were centrifuged (2000 rpm, 5 min) and the absorbance of the supernatant was measured at 540 nm (ASYS UVM 340 Biogenet). The percentage of hemolysis was determined in comparison to the hemoglobin absorbance released by a 1% SDS solution (100% hemolysis).

Where [9] appears, read: 120 h, replated on YPD agar, 5 days, read-out: Minimal fungicidal concentration (MFC).
The mark [10] stands for this setting: ≥90% growth inhibition, 48 h, YPD, read-out: Minimal inhibitory concentration (MIC90).

≈ marks a conversion by molar mass, not a printed value.

Turning to `C[C@@H]1[C@H](O)[C@@H](C)/C=C/C=C/C=C/C=C/C=C/C=C/C=C/[C@H](O[C@@H]2O[C@H](C)[C@@H](O)[C@H](N)[C@@H]2O)C[C@@H]2O[C@](O)(C[C@@H](O)C[C@@H](O)[C@H](O)CC[C@@H](O)C[C@@H](O)CC(=O)O[C@H]1C)C[C@H](O)[C@H]2C(=O)O` [AMB, amphotericin B, reference compound], the MFC turned out to be 0.5 µM (≈ 0.462 µg/mL) in the series on C. albicans SC5314 (setting [9]), 0.5 µM (≈ 0.462 µg/mL) with C. glabrata ATCC90030 (setting [9]), 1 µM (≈ 0.924 µg/mL) in the series with C. krusei ATCC6258 (setting [9]) and 0.5 µM (≈ 0.462 µg/mL) with C. parapsilosis CBS10947 (setting [9]). In addition, the MIC90 in the series with C. albicans SC5314 (setting [10]) stood at 0.25 µM (≈ 0.231 µg/mL); with C. glabrata ATCC90030 (setting [10]) it was 0.25 µM (≈ 0.231 µg/mL); in the series with C. krusei ATCC6258 (setting [10]), 0.5 µM (≈ 0.462 µg/mL); in the series with C. parapsilosis CBS10947 (setting [10]), 0.25 µM (≈ 0.231 µg/mL). In addition, the Reduction of adhesion with C. albicans [1] is given as ~ 27%; with C. glabrata [2] it was ~ 15%; in the series with C. krusei [3] it was ~ 20%; in the series with C. parapsilosis [4] it was ~ 20%. In addition, the “Percentage of cells with permeabilized PMs” value is 37.3 ± 4.17 % with C. albicans [5], 43.2 ± 2.15 % with C. glabrata [6], 38.2 ± 10.7 % in the series on C. krusei [7] and 32.38 ± 3.15 % in the series on C. parapsilosis [8]. Also, the Hemolytic activity with sheep erythroid PMs worked out at 86.7 ± 0.43 %.
